Measured values taken from ChEMBL document CHEMBL3608209, “N-Aryl benzenesulfonamide inhibitors of [3H]-thymidine incorporation and β-catenin signaling in human hepatocyte-derived Huh-7 carcinoma cells” (Bioorg Med Chem Lett, 2015).

How the values were obtained:
[1] = tested on: Huh-7; assay: Inhibition of Wnt/beta catenin in human HuH7 cells assessed as [3H]-thymidine incorporation at 10 uM by scintillation counting analysis relative to DMSO-treated control; assay type: cell-based
[2] = tested on: Huh-7; assay: Inhibition of Wnt/beta catenin in human HuH7 cells assessed as [3H]-thymidine incorporation at 10 uM by scintillation counting analysis relative to FH535; assay type: cell-based
[3] = tested on: Huh-7; assay: Inhibition of Wnt/beta catenin in human HuH7 cells assessed as [3H]-thymidine incorporation at 10 uM by scintillation counting analysis relative to DMSO-treated control; values are per cent of control
[4] = tested on: Huh-7; assay: Inhibition of Wnt/beta catenin in human HuH7 cells assessed as decrease in TCF/LEF-dependent promoter activation at 10 uM after 36 hrs by TOPFlash luciferase reporter gene assay relative to control; assay type: cell-based

SMILES | inhibition [1] | fold change (FC) [2] | level, % of control [3] | inhibition [4]
O=C(c1ccccc1)c1ccc(NS(=O)(=O)c2c(Cl)cccc2Cl)cc1 | 33% | 0.9 | 67% | –
Cc1cc(CO)ccc1NS(=O)(=O)c1c(Cl)cccc1Cl | 73% | 2 | 27% | 13%
O=[N+]([O-])c1ccc(NS(=O)(=O)c2cc(F)ccc2F)c2ccccc12 | 31% | 0.9 | 69% | 64%
COC(=O)c1ccc(NS(=O)(=O)c2cc(Cl)ccc2Cl)c(C)c1 | 18% | 0.5 | 82% | –
Cc1cc(CO)ccc1NS(=O)(=O)c1c(F)cccc1F | 38% | 1.1 | 62% | –
O=[N+]([O-])c1ccc(NS(=O)(=O)c2ccccc2)c2ccccc12 | 42% | 1.2 | 58% | 72%
O=S(=O)(Nc1cccc(OCc2ccccc2)c1)c1c(F)cccc1F | 43% | 1.2 | 57% | –
Cc1cc(CO)ccc1NS(=O)(=O)c1cc(Cl)ccc1Cl | 67% | 1.9 | 33% | –
Cc1cc([N+](=O)[O-])ccc1NS(=O)(=O)c1cc(Cl)ccc1Cl | 36% | – | 64% | 73%
O=[N+]([O-])c1ccc(NS(=O)(=O)c2c(Cl)cccc2Cl)c2ccccc12 | 26% | 0.7 | 74% | 47%
O=S(=O)(Nc1ccccc1Oc1ccccc1)c1c(Cl)cccc1Cl | 38% | 1.1 | 62% | 45%
Cc1cc(CO)ccc1NS(=O)(=O)c1ccccc1 | 53% | 1.5 | 47% | –
O=C(c1ccccc1)c1ccc(NS(=O)(=O)c2c(F)cccc2F)cc1 | 33% | 0.9 | 67% | –
O=S(=O)(Nc1ccccc1Oc1ccccc1)c1c(F)cccc1F | 34% | 0.9 | 66% | –
COC(=O)c1cc(Cl)ccc1NS(=O)(=O)c1cc(Cl)ccc1Cl | 0% | 0 | 106% | –
O=C(c1ccccc1)c1ccc(NS(=O)(=O)c2ccccc2)cc1 | 38% | 1.1 | 62% | 46%
COC(=O)c1cc(F)ccc1NS(=O)(=O)c1cc(Cl)ccc1Cl | 7% | 0.2 | 93% | 61%
COC(=O)c1ccc(NS(=O)(=O)c2c(Cl)cccc2Cl)c(C)c1 | 29% | 0.8 | 71% | –
O=S(=O)(Nc1cccc(OCc2ccccc2)c1)c1ccccc1 | 29% | 0.8 | 71% | –
O=[N+]([O-])c1ccc(NS(=O)(=O)c2cc(Cl)ccc2Cl)c2ccccc12 | 48% | 1.3 | 52% | –
O=S(=O)(Nc1cccc(OCc2ccccc2)c1)c1c(Cl)cccc1Cl | 31% | 0.9 | 69% | 53%
